From ChEMBL document CHEMBL3046963, “Fungicidal Activity of 2-Aminochromone-3-carboxamides” (1990)
≈ marks a conversion by molar mass, not a printed value.

test system: Nakataea oryzae; assay: Fungicidal activity against Magnaporthe salvinii by agar dilution method; type: functional

Row | SMILES | MIC [µg/mL]
1 | CCC(C)(CC)c1ccc2oc(N)c(C(N)=O)c(=O)c2c1 | 3.12 (≈ 10.8 µM)
2 | N#Cc1c(N)oc2ccccc2c1=O | > 100
3 | CNC(=O)Nc1oc2ccc(C(C)(C)C)cc2c(=O)c1C(N)=O | 0.78 (≈ 2.46 µM)
4 | NC(=O)c1c(N)oc2ccc(Br)cc2c1=O | 1.56 (≈ 5.51 µM)
5 | NC(=O)c1c(N)oc2ccc(F)cc2c1=O | 25 (≈ 113 µM)
6 | CC(=O)Nc1oc2ccccc2c(=O)c1C(N)=O | 100 (≈ 406 µM)
7 | NC(=O)c1c(N)oc2ccc(I)cc2c1=O | 3.12 (≈ 9.45 µM)
8 | CCOC(=O)Nc1oc2ccc(C(C)(C)C)cc2c(=O)c1C(N)=O | 25 (≈ 75.2 µM)
9 | CNc1oc2ccc(C(C)(C)C)cc2c(=O)c1C(N)=O | 1.56 (≈ 5.69 µM)
10 | CCC(C)(C)c1ccc2oc(N)c(C(N)=O)c(=O)c2c1 | 6.25 (≈ 22.8 µM)
11 | CCCCc1ccc2oc(N)c(C(N)=O)c(=O)c2c1 | 50 (≈ 192 µM)
12 | Cc1oc2ccccc2c(=O)c1C(N)=O | > 100
13 | CC(=O)Nc1oc2ccc(C(C)(C)C)cc2c(=O)c1C(N)=O | 6.25 (≈ 20.7 µM)
14 | CC(C)C(C)(C)c1ccc2oc(N)c(C(N)=O)c(=O)c2c1 | 6.25 (≈ 21.7 µM)

test system: Bipolaris oryzae; assay: Fungicidal activity against Bipolaris oryzae by agar dilution method; type: functional

Row | SMILES | MIC [µg/mL]
15 | CCC(C)(CC)c1ccc2oc(N)c(C(N)=O)c(=O)c2c1 | > 100
16 | N#Cc1c(N)oc2ccccc2c1=O | > 100
17 | CNC(=O)Nc1oc2ccc(C(C)(C)C)cc2c(=O)c1C(N)=O | 100 (≈ 315 µM)
18 | NC(=O)c1c(N)oc2ccc(Br)cc2c1=O | > 100
19 | NC(=O)c1c(N)oc2ccc(F)cc2c1=O | > 100
20 | CC(=O)Nc1oc2ccccc2c(=O)c1C(N)=O | > 100
21 | NC(=O)c1c(N)oc2ccc(I)cc2c1=O | 12.5 (≈ 37.9 µM)
22 | CCOC(=O)Nc1oc2ccc(C(C)(C)C)cc2c(=O)c1C(N)=O | > 100
23 | CNc1oc2ccc(C(C)(C)C)cc2c(=O)c1C(N)=O | 25 (≈ 91.1 µM)
24 | CCC(C)(C)c1ccc2oc(N)c(C(N)=O)c(=O)c2c1 | 50 (≈ 182 µM)
25 | CCCCc1ccc2oc(N)c(C(N)=O)c(=O)c2c1 | > 100
26 | Cc1oc2ccccc2c(=O)c1C(N)=O | > 100
27 | CC(=O)Nc1oc2ccc(C(C)(C)C)cc2c(=O)c1C(N)=O | 100 (≈ 331 µM)
28 | CC(C)C(C)(C)c1ccc2oc(N)c(C(N)=O)c(=O)c2c1 | > 100

test system: Pyricularia oryzae; assay: Fungicidal activity against Magnaporthe oryzae by agar dilution method; type: functional

Row | SMILES | MIC [µg/mL]
29 | CCC(C)(CC)c1ccc2oc(N)c(C(N)=O)c(=O)c2c1 | 1.56 (≈ 5.41 µM)
30 | N#Cc1c(N)oc2ccccc2c1=O | > 100
31 | CNC(=O)Nc1oc2ccc(C(C)(C)C)cc2c(=O)c1C(N)=O | 0.78 (≈ 2.46 µM)
32 | NC(=O)c1c(N)oc2ccc(Br)cc2c1=O | 1.56 (≈ 5.51 µM)
33 | NC(=O)c1c(N)oc2ccc(F)cc2c1=O | 25 (≈ 113 µM)
34 | CC(=O)Nc1oc2ccccc2c(=O)c1C(N)=O | 50 (≈ 203 µM)
35 | NC(=O)c1c(N)oc2ccc(I)cc2c1=O | 3.12 (≈ 9.45 µM)
36 | CCOC(=O)Nc1oc2ccc(C(C)(C)C)cc2c(=O)c1C(N)=O | 25 (≈ 75.2 µM)
37 | CNc1oc2ccc(C(C)(C)C)cc2c(=O)c1C(N)=O | 1.56 (≈ 5.69 µM)
38 | CCC(C)(C)c1ccc2oc(N)c(C(N)=O)c(=O)c2c1 | 3.12 (≈ 11.4 µM)
39 | CCCCc1ccc2oc(N)c(C(N)=O)c(=O)c2c1 | 50 (≈ 192 µM)
40 | Cc1oc2ccccc2c(=O)c1C(N)=O | > 100
41 | CC(=O)Nc1oc2ccc(C(C)(C)C)cc2c(=O)c1C(N)=O | 3.12 (≈ 10.3 µM)
42 | CC(C)C(C)(C)c1ccc2oc(N)c(C(N)=O)c(=O)c2c1 | 3.12 (≈ 10.8 µM)

test system: Rhizoctonia solani; assay: In vivo fungicidal activity against Rhizoctonia solani in rice seedlings assessed as control of sheath blight disease at 500 ppm by curative foliar treatment; type: functional

Row | SMILES | Activity [%]
43 | CCC(C)(CC)c1ccc2oc(N)c(C(N)=O)c(=O)c2c1 | 100
44 | N#Cc1c(N)oc2ccccc2c1=O | 0
45 | CNC(=O)Nc1oc2ccc(C(C)(C)C)cc2c(=O)c1C(N)=O | 100
46 | NC(=O)c1c(N)oc2ccc(Br)cc2c1=O | 100
47 | NC(=O)c1c(N)oc2ccc(F)cc2c1=O | 100
48 | CC(=O)Nc1oc2ccccc2c(=O)c1C(N)=O | 90
49 | NC(=O)c1c(N)oc2ccc(I)cc2c1=O | 100
50 | CCOC(=O)Nc1oc2ccc(C(C)(C)C)cc2c(=O)c1C(N)=O | 100
51 | CNc1oc2ccc(C(C)(C)C)cc2c(=O)c1C(N)=O | 100
52 | CCC(C)(C)c1ccc2oc(N)c(C(N)=O)c(=O)c2c1 | 100
53 | CCCCc1ccc2oc(N)c(C(N)=O)c(=O)c2c1 | 90
54 | Cc1oc2ccccc2c(=O)c1C(N)=O | 0
55 | CC(=O)Nc1oc2ccc(C(C)(C)C)cc2c(=O)c1C(N)=O | 100
56 | CC(C)C(C)(C)c1ccc2oc(N)c(C(N)=O)c(=O)c2c1 | 100

test system: Rhizoctonia solani; assay: Fungicidal activity against Rhizoctonia solani by agar dilution method; type: functional

Row | SMILES | MIC [µg/mL]
57 | CCC(C)(CC)c1ccc2oc(N)c(C(N)=O)c(=O)c2c1 | > 100
58 | N#Cc1c(N)oc2ccccc2c1=O | > 100
59 | CNC(=O)Nc1oc2ccc(C(C)(C)C)cc2c(=O)c1C(N)=O | > 100
60 | NC(=O)c1c(N)oc2ccc(Br)cc2c1=O | 3.12 (≈ 11 µM)
61 | NC(=O)c1c(N)oc2ccc(F)cc2c1=O | 12.5 (≈ 56.3 µM)
62 | CC(=O)Nc1oc2ccccc2c(=O)c1C(N)=O | 25 (≈ 102 µM)
63 | NC(=O)c1c(N)oc2ccc(I)cc2c1=O | 12.5 (≈ 37.9 µM)
64 | CCOC(=O)Nc1oc2ccc(C(C)(C)C)cc2c(=O)c1C(N)=O | 50 (≈ 150 µM)
65 | CNc1oc2ccc(C(C)(C)C)cc2c(=O)c1C(N)=O | 25 (≈ 91.1 µM)
66 | CCC(C)(C)c1ccc2oc(N)c(C(N)=O)c(=O)c2c1 | > 100
67 | CCCCc1ccc2oc(N)c(C(N)=O)c(=O)c2c1 | > 100
68 | Cc1oc2ccccc2c(=O)c1C(N)=O | > 100
69 | CC(=O)Nc1oc2ccc(C(C)(C)C)cc2c(=O)c1C(N)=O | 6.25 (≈ 20.7 µM)
70 | CC(C)C(C)(C)c1ccc2oc(N)c(C(N)=O)c(=O)c2c1 | > 100
